# In patent publication US20080051435A1, “Crystalline and amorphous forms of tiagabine” (Cephalon, Inc., priority 2006, published 2008):
# Tests used:
# [1] = Solid-form stability on storage at ambient temperature and humidity, XRPD analysis; assay type: physicochemical; settings: for form conversion during storage: during storage (general description); for solid form by XRPD after storage: stored approximately two months, ambient temperature and humidity, hydrochloride
# Text: Tiagabine HCl Form K was stored for approximately two months under conditions of ambient temperature and humidity.
# [2] = Moisture sorption/desorption (VTI SGA-100 moisture balance); assay type: physicochemical
# Description: Moisture sorption/desorption data were collected on a VTI SGA-100 moisture balance system. For sorption isotherms, a sorption range of 5 to 95% relative humidity (RH) and a desorption range of 95 to 5% RH in 10% RH increments were used for analysis. The samples were not dried prior to analysis. Equilibrium criteria used for analysis were less than 0.0100% weight change in 5 minutes with a maximum equilibration time of 3 hours if the weight criterion was not met. Data were not corrected for the initial moisture content of the samples.
SMILES,form conversion during storage ([1]; listed as Tiagabine hydrochloride Form K),solid form by XRPD after storage [1],solid form by XRPD after moisture sorption/desorption ([2]; XRPD analysis of the sample after moisture sorption/desorption),weight loss from 95% to 5% RH ([2]; desorption 95% to 5% RH) [%],"weight loss upon equilibration at 5% relative humidity (RH) ([2]; equilibration at 5% RH, sample not dried prior to analysis) [%]",weight gain from 5% to 95% RH ([2]; sorption 5% to 95% RH) [%],form conversion during storage ([1]; listed as Tiagabine hydrochloride Form L)
"Cc1ccsc1C(=CCCN1CCC[C@@H](C(=O)O)C1)c1sccc1C.Cl [Tiagabine HCl Form K, tiagabine hydrochloride]",converts to a mixture of tiagabine hydrochloride Forms Q and B,a mixture of tiagabine HCl Forms Q and B,–,–,–,–,–
"Cc1ccsc1C(=CCCN1CCC[C@@H](C(=O)O)C1)c1sccc1C [Tiagabine free base Form A, (−)-(R)-1-(4,4-bis(3-methyl-2-thienyl)-3-butenyl)-3-piperidinecarboxylic acid]",–,–,tiagabine free base amorphous,18.7,1.0,23.5,–
"Cc1ccsc1C(=CCCN1CCC[C@@H](C(=O)O)C1)c1sccc1C.Cl [Tiagabine HCl Form L, tiagabine hydrochloride]",–,a mixture of tiagabine HCl Forms B and Q,–,–,–,–,converts to a mixture of tiagabine hydrochloride Forms B and Q
